Results reported in patent publication US20230263808A1 (UNIVERSITY OF FLORIDA RESEARCH FOUNDATION, INCORPORATED, priority 2020, published 2023).
Entries after “also recorded” stand apart in the source; their conditions may differ.

What was measured:
[1] = test system: LPS-induced TNFα; experiment: LPS-induced plasma TNFα levels in mice; assay type: in vivo, C57BL/6 male mice; conditions: mice pretreated with ligand
Description: (§1) A) Correlation of correlation (COC) plots where each point represents the Pearson correlation coefficient, r, between a distinct gene expression or GR-peptide interaction assay with assays indicated on the x and y axes. B) The effects of all tested compounds on IL-1β-induced secretion of IL-6 (y axes) and GC-regulated phenotypes indicated on the x axes. C) The effects of all tested compounds on IL-1β-induced secretion of IL-6 (y axis) and bone mineralization (x axis). D) IL-1β-induced IL-6 production by A549 cells treated with 10 μM of the indicated compounds was compared by AlphaLISA. E-H) Myoblasts were assayed as described in FIG. 8. I) Representative myoblasts imaged during the mitochondrial potential assay. J) Plasma TNFα levels of C57BL/6 male mice treated pretreated with the indicated ligands. K) Changes in lean mass of mice in panel J were determined by whole-body NMR after an additional 18 h LPS treatment. Data shown are mean+SEM.

[2] = Loss of lean mass after a larger dose of LPS (whole-body NMR); assay type: in vivo, C57BL/6 male mice; conditions: additional 18 h LPS treatment
Description: as §1

[3] = Lactate-tolerance test (rate of glucose production); assay type: in vivo, C57BL/6 male mice; conditions: after overnight fast; 10 mg/kg Dex or SR16024, 50 mg/kg SR11466
Description: A) The effects of all tested compounds on IL-1β-induced IL-6 production (x-axes) versus GR interaction with the indicated peptides. B-C) The effects of all tested compounds on the indicated GC-regulated phenotypes (x-axes) versus GR interaction with the CHD9_1023 and CENPR_1 peptides (y-axes). D-F) COC plots. Each point represents the Pearson correlation coefficient, r, between a distinct gene expression or GR-peptide interaction assay with assays indicated on the x and y axes. G) The effects of all tested compounds on IL-1β-induced IL-6 production (y-axes) versus insulin-induced protein synthesis. […] IL-β-induced IL-6 production by A549 cells treated with the indicated compounds was compared by AlphaLISA. […] Mice in panel K were subjected to a lactate-tolerance test (LTT).
We were also interested in whether the compounds would show dissociation between Glut4 translocation in skeletal muscle and gluconeogenesis in the liver, but enhanced glucose production is typically studied after weeks or months of GC treatment. However, we reasoned that an overnight fast should enable detection of effects after a single dose. […] Thus, profiling effects of GCs in the physiological context of nutrient deprivation allowed the discovery of two new types of glucocorticoids with improved profiles in skeletal muscle.

[4] = test system: myoblasts; experiment: Myoblast proliferation and fusion into myotubes; assay type: cell-based
[5] = test system: L6 myotubes; experiment: Glut4 translocation to the myotube surface (In-Cell Western); assay type: cell-based, rat
Experimental: (§2) A) C2C12 myotubes were assayed for chymotrypsin-like proteasomal activity. […] C) Quantitation of the ICW in panel B. D) ICW for surface expression of Glut4 on L6 myotubes. E) ICW for insulin-induced incorporation of puromycin into C2C12 myotube surface proteins. F-G) High-content imaging and analysis of C2C12 myoblasts stained with a Mitotracker dye. H) Assay reproducibility from screening 22 compounds on two separate occasions. The Pearson correlation coefficient, r, and its associated p-value is indicated.
(§3) C2C12 myocytes were used in all assays, except in the Glut4 translocation assay where L6 rat myocytes were used. ICW, In-Cell Western. Also see Methods.
(§4) Physiologically, the effects of GCs on protein balance and Glut4 translocation vary in vivo depending upon the stressor. For example, GCs mediate atrophy in response to fasting but not exercise. […] To assess protein degradation, we measured chymotrypsin-like proteasomal activity (FIG. 2, A). The activating phosphorylation of AKT at Thr308 (pAKT) was measured using a LI-COR In-Cell Western assay (FIG. 2, B and C). The rate-limiting step in insulin-mediated glucose uptake is the translocation of the glucose transporter, Glut4, to the surface membrane, which we also measured by In-Cell Western without permeabilizing the myotubes (FIG. 2, D). Surface Sensing of Translation (SUnSET) (Schmidt et al., Nat Methods 6, 275-277, 2009) assay was used to measure protein synthesis by In-Cell Western, following treatment of myotubes with a low dose of puromycin, which incorporates into translating proteins, but at a low enough level to provide a readout for global protein synthesis (FIG. 2, E). Lastly, we developed a high-content imaging assay in myoblasts stained with a MitoTracker dye, so that individual mitochondrial networks could be visualized with adequate resolution to quantitate area, segmentation, branching, and fluorescence intensity which is a measure of mitochondrial membrane potential (ψm).

[6] = test system: pAKT in C2C12 myotubes; experiment: Insulin-induced pAKT (Thr308) In-Cell Western; assay type: cell-based, mouse
Experimental: as §2
A) Pearson correlations were calculated between the indicated variables. The different lines indicate statistically significant correlations at the corresponding p-value thresholds. Solid lines indicate positive correlations, dashed lines indicate negative correlations. […]
Physiologically, the effects of GCs on protein balance and Glut4 translocation vary in vivo depending upon the stressor. […] To assess protein degradation, we measured chymotrypsin-like proteasomal activity (FIG. 2, A). The activating phosphorylation of AKT at Thr308 (pAKT) was measured using a LI-COR In-Cell Western assay (FIG. 2, B and C). The rate-limiting step in insulin-mediated glucose uptake is the translocation of the glucose transporter, Glut4, to the surface membrane, which we also measured by In-Cell Western without permeabilizing the myotubes (FIG. 2, D). […]

[7] = background statement; cited from earlier work
[8] = test system: mitochondrial activity, pAKT, protein synthesis, and bone; experiment: Compound profiling platform, overall profile (FIG. 15); assay type: cell-based; conditions: for overall profile in compound profiling (anabolic effects, agonism): 10 uM
Experimental: N=4-6 from two different experiments. […] D) Mitochondrial activity was measured in myoblasts using high content imaging with mitotracker dye after 24 treatment. New amino acid incorporation was measured with LICOR in cell western for puromycin (SunSet assay). […] N=3, mean+SEM. […] N=4, mean+SEM, 2-way ANOVA.
(§5) To avoid such effects on myogenesis, we switched myoblasts to differentiation media, and then on day 4, added 10 μM cytarabine, a chemotherapy agent that kills dividing cells, and then adding GCs on day 6 or 7 and completing assays in day 8 (FIG. 8).
as §4
Additional studies were performed to assess activities of the various compounds identified from the previous profiling.

[9] = test system: C2C12 myoblasts; experiment: Mitochondrial potential, high-content imaging with MitoTracker dye; assay type: cell-based, mouse
Experimental: as §2
(§6) A) Each dot represents the effects of a compound in the indicated assays at 10 uM. N=4-6 from two different experiments. […] C) SR11466 is efficacious at inhibiting IL-6 secretion from A549 cells. C-E). […] D) Mitochondrial activity was measured in myoblasts using high content imaging with mitotracker dye after 24 treatment. New amino acid incorporation was measured with LICOR in cell western for puromycin (SunSet assay). E) top, MMTV-luciferase reporter data. N=3, mean+SEM. Bottom, Mineralization of primary human OBs was assayed after two weeks of differentiation from MSC and two weeks of mineralization. N=4, mean+SEM, 2-way ANOVA.
as §4

[10] = test system: C2C12 myotubes; experiment: Protein degradation: chymotrypsin-like proteasomal activity in C2C12 myotubes; assay type: cell-based, mouse
Experimental: as §2, §3, §5
as §4, with “Lastly, we developed a high-content imaging assay in myoblasts stained with a MitoTracker dye, so that individual mitochondrial networks could be visualized with adequate resolution to quantitate area, segmentation, branching, and fluorescence intensity which is a measure of mitochondrial membrane potential (ψm).” left out

[11] = test system: C2C12 myotubes; experiment: Insulin-induced protein synthesis (SUnSET, In-Cell Western) in C2C12 myotubes; assay type: cell-based, mouse; conditions: fasting conditions
Experimental: as §2, §3, §5, §4

[12] = test system: GILZ mRNA; experiment: GILZ gene expression; assay type: cell-based
[13] = test system: IL-1β-induced IL-6 secretion by A549 lung cells; experiment: IL-1β-induced IL-6 secretion by A549 lung cells (AlphaLISA); assay type: cell-based; conditions: 10 μM
Description: as §1
In order to understand whether effects on skeletal muscle could be dissociated from anti-inflammatory effects of the ligands, we profiled the compounds for suppression of IL1β-induced IL-6 secretion by A549 lung cells. Examining the correlations between assays can be used to identify dissociated assays that selectively correlate with a given phenotype, predicting discovery of dissociated ligands. […] We call this a correlation of correlations (COC) plot. […] These include recruitment of NCOA2 and NCOA3 peptides, coactivators that we and others have shown to be required for GC-dependent suppression of inflammation in different cell types (FIG. 11, A). However, for the mitochondrial assay and IL-6, there are dissociated assays shown by points that are far out from the regression line in the COC plot (FIG. 7, A). For example, interaction of CHD9 with GR predicted mitochondrial activity but not Glut4 translocation (FIG. 11, B), while interaction with the CENPR peptide selectively predicted effects on Glut4 translocation (FIG. 11, C). […] Assays that correlated with effects of the ligands on GR nuclear translocation were also highly correlated with Glut4 translocation and suppression of IL-6 secretion (FIG. 11, F). Therefore, the COC curves provide a way to identify common signaling mechanisms between different GR target tissues and signaling pathways.

[14] = test system: primary human osteoblasts; experiment: Osteoblast mineralization (Alizarin Red S) from mesenchymal stem cells; assay type: cell-based
Experimental: as §6
As a further test for dissociation, the compounds were profiled in primary human osteoblasts for effects on osteogenesis during 4 weeks of differentiation from mesenchymal stem cells. Specifically, osteoblast mineralization was examined as follows. Human mesenchymal stem cells (MSCs) at passage 2 were maintained in growth media consisted of alpha-MEM (Life Technologies, 32561-037) supplemented with 17% FBS (Sigma-Aldrich, 12303C), 2 mM L-glutarnine (Life Technologies, 25030-081), and 100 units/mL penicillin/streptomycin (Life Technologies, 15140-122). Effect of glucocorticoid receptor modulators on osteogenic differentiation of MSCs was quantified using Alizarin Red S (Sigma-Aldrich, A5533) staining. Briefly, human MSCs were seeded in the middle 8 wells of 48-well plates at plating density of 10,000 cells per well. PBS (Life Technologies, 10010-031) was added to surrounding wells to reduce evaporation of media in the middle wells during prolonged incubation. 24 h later, growth media was replaced by osteogenic induction media (OIM) consisted of low-glucose DMEM (Life Technologies, 10567-014) supplemented with 10% FBS (Sigma-Aldrich. 12303C), 50 μg/ml L-ascorbic-2-phosphate (Sigma-Aldrich, A8960), 10 mM β-glyceroiphosphate (Sigma-Aldrich, G9891), and glucocorticoid modulators. OIM containing test compounds was replaced every week. At the end of 2 weeks, monolayers were washed with PBS (Life Technologies, 10010-031), incubated in Richard-Allan Scientific™ Neutral Buffered Formalin (10%) (Thermo Scientific, 5725) for 2 h at room temperature, washed with deionized water and stained with Alizarin Red S for 30 min at room temperature. Monolayers were then rinsed 3×with deionized water until clear, stain was then extracted with 10% (w/v) cetylpyridinium chloride (Sigma-Aldrich, C0732) in 10 mM sodium phosphate (Sigma, S5011 and S5136), pH 7.0 for 15 min at room temperature and the amount of extracted dye quantified spectroscopically at 562 nm. Spectroscopic analysis performed using a synergy™ NEO HTS Multi-Mode Microplate Reader (BioTek Instruments, Inc.).

With `C[C@@H]1C[C@H]2[C@@H]3CCC4=CC(=O)C=C[C@]4(C)[C@@]3(F)[C@@H](O)C[C@]2(C)[C@@]1(O)C(=O)CO` [Dex, dexamethasone, reference compound] the “LPS-induced TNFα levels in the blood” value [1] was “strongly suppressed”, the “loss of lean mass following a larger dose of LPS” value [2] was “significantly worsened” and the “rate of glucose production in lactate tolerance test” value [3] was “increased the rate of glucose production”. For the same compound, the fusion into myotubes [4] was “promotes fusion”, the myoblast proliferation [4] was “strongly inhibits” and the “potency for modulating Glut4 translocation” value ([5]; fasting conditions) was “low nM”. For the same compound, the “insulin-mediated pAKT after 1 hr of treatment” value ([6]; 1 hr treatment) was “not inhibited”, the “potency for modulating pAKT” value ([6]; fasting conditions) was “low nM” and the “concentration required for effects on protein balance in vitro” value [7] was 50 to 100 µM. For the same compound, the “dosing at which effects on the insulin signaling pathway are shown” value ([8]; myotubes, serum starvation, insulin challenge, cytarabine treatment) was 1 to 10 nM, the “Dex concentration sufficient to produce the maximal loss of mitochondrial oxidative capacity” value [9] was 1 nM and the “effect on mitochondrial activity / potential” value [9] was “strongly inhibited; also recorded: reduced”. The “effect on protein degradation (proteasomal)” value [10] was “stimulated protein degradation” and the “potency for modulating protein synthesis” value [11] was “low nM”.

In the case of `Cc1ncccc1NC(=O)c1ccc2c(c1)CC[C@@H]1C[C@@](O)(C(F)(F)F)CC[C@@]21Cc1ccccc1` [PF802, reference compound], the “effect on Glut4 translocation” value [5] was “slightly improved compared to Dex”, the “overall profile in compound profiling (anabolic effects, agonism)” value (“overall profile in compound profiling” below) [8] was “partial agonist” and the “effect on mitochondrial activity / potential” value [9] was “strongly inhibited”. The “effect on protein degradation (proteasomal)” value [10] was “stimulated protein degradation as strongly as Dex”.

In the case of `CC#CC1(O)CCC2C3CCc4cc(C(=O)Nc5cccnc5C)ccc4C3C(OCc3ccccc3)CC21C` (stereo not drawn) [SR11469], the GILZ gene expression [12] was “not activating GILZ”, the “overall profile in compound profiling” value [8] was “more antagonistic SGRMs; also recorded: anabolic effects” and the “inhibition of IL-1β-induced IL-6 secretion (anti-inflammatory)” value (shortened to “inhibition”) [13] was “weakly anti-inflammatory”.

For `CC#CC1(O)CCC2C3CCc4cc(C(=O)Nc5ccc(C)nc5)ccc4C3C(O)CC21C` (stereo not drawn) [SR15419], the “overall profile in compound profiling” value [8] was “anabolic effects”.

With `CC#CC1(O)CCC2C3CCc4cc(C(=O)Nc5ncccc5C)ccc4C3C(O)CC21C` (stereo not drawn) [SR15438] the “overall profile in compound profiling” value [8] was “anabolic effects”.

In the case of `CC#CC1(O)CCC2C3CCc4cc(C(=O)Nc5cccnc5C)ccc4C3C(OC)CC21C` (stereo not drawn) [SR15960], the “inhibition” value [13] was “fully inhibiting IL-6 secretion”.

In the case of `CC#CC1(O)CCC2C3CCc4cc(C(=O)Nc5cccnc5C)ccc4C3C(OCC)CC21C` (stereo not drawn) [SR15961], the “inhibition” value [13] was “fully inhibiting IL-6 secretion”.

For `CC#CC1(O)CCC2C3CCc4cc(C(=O)Nc5cccnc5C)ccc4C3C(OCc3cccc(Cl)c3)CC21C` (stereo not drawn) [SR16023], the “overall profile in compound profiling” value [8] was “anabolic effects”.

In the case of `C[C@]12CC[C@H]3[C@@H](CCC4=CC(=O)CC[C@@]43C)[C@@H]1CC[C@@H]2O` [testosterone, reference compound], the “effect on mineralization (bone)” value [14] was “no effect”.
